Test: in vitro
Conditions: human, hela cells, % viability

Compared with Cc1cc(C)c(NC(=O)N(CCCO)Cc2ccncc2)c(Cl)c1 [CBK304406], CC(=O)Nc1ccc(OCC(O)Cn2cnc3cc(C)c(C)cc32)cc1 (stereo not shown) [CBK304545] is higher in viability at 28.5 h, 10 µM: 87.3% for the first, 93.3% for the second.

Compared with Cc1nc(-c2ccc(Cl)cc2)sc1C(=O)N1CCCC(C(=O)O)C1 (stereo not shown) [CBK304407], O=C(O)C1CCCN(C(=O)Cc2csc(COc3ccc(Cl)cc3)n2)C1 (stereo not shown) [CBK304501] is lower in viability at 28.5 h, 10 µM: 91.9% for the first, 88.1% for the second.

First: CCc1cc(C(=O)NC(Cn2ccnc2)C(C)(C)C)cc(=O)[nH]1 (stereo not shown) [CBK304410]
Second: O=C(Cn1ccccc1=O)Nc1ccc(OCC(F)(F)F)nc1 [CBK304556]
The viability at 28.5 h, 10 µM of the first is higher: 101% for the first, 88.9% for the second.

Compared with OCC(CNc1ncnc2nc[nH]c12)Cc1ccccn1 (stereo not shown) [CBK304412], CC(NC(=O)C1CC(=O)N(Cc2ccccn2)C1)c1ccc(F)cc1 (stereo not shown) [CBK304552] is higher in viability at 28.5 h, 10 µM: 83.4% for the first, 97.1% for the second.

Going from O=C(c1c[nH]c(=O)c(Cl)c1)N1CCCCC1CN1CCOCC1 (stereo not shown) [CBK304416] to O=C1CCC(C(=O)N2CCN(S(=O)(=O)c3ccccc3Cl)CC2)N1 (stereo not shown) [CBK304561], the viability at 28.5 h, 10 µM falls from 119% to 77.6%.

Going from CC(=O)c1ccc(C(=O)Nc2sc3c(c2C#N)CCN(C(C)=O)C3)cc1 [CBK304418] to CCOC(=O)c1c(NC(=O)c2cccnc2)sc2c1CCCC2 [CBK304574], the viability at 28.5 h, 10 µM rises from 84.8% to 101%.

Compared with Cc1nc(CC(=O)NC2CCCN(c3ccn(C)n3)C2=O)c(C)s1 (stereo not shown) [CBK304422], Cc1csc(C(C)NC(=O)NC2CCCN(c3ccn(C)n3)C2=O)n1 (stereo not shown) [CBK304426] is higher in viability at 28.5 h, 10 µM: 82.8% for the first, 107% for the second.

Compared with Cc1nc(-c2ccc(NCCc3nc(C4CC4)cs3)nc2)[nH]c(=O)c1C [CBK304424], Cc1cc(NCC2CCCO2)n2nc(C)c(-c3ccccc3)c2n1 (stereo not shown) [CBK304531] is lower in viability at 28.5 h, 10 µM: 108% for the first, 90.5% for the second.

Compared with Cc1ccc(C#N)cc1S(=O)(=O)NC(=O)COCC1CC1 [CBK304427], N#Cc1ccc(OCC(=O)Nc2ncccn2)cc1 [CBK304578] is lower in viability at 28.5 h, 10 µM: 113% for the first, 85.4% for the second.

Going from CCOc1cc(NC2CCN(C(=O)C3(CCOC)CC3)CC2)ncn1 [CBK304434] to Cc1cc(C)cc(C(O)CNC2CCN(Cc3cscn3)CC2)c1 (stereo not shown) [CBK304457], the viability at 28.5 h, 10 µM falls from 98.2% to 94.4%.

Going from COc1ccc(CCNC(=O)Cn2ccc(C3CCCNC3)n2)cc1 (stereo not shown) [CBK304444] to Cc1c(C(=O)N2CCNCC2C)nnn1-c1ccc2ncccc2c1 (stereo not shown) [CBK304473], the viability at 28.5 h, 10 µM rises from 76.3% to 94.6%.

Compared with COCc1nc2n(n1)CC(NC1CCCCc3ccccc31)CC2 (stereo not shown) [CBK304445], CC(CNC(=O)C1CCCC1)N1CCc2ccccc2C1 (stereo not shown) [CBK304555] is higher in viability at 28.5 h, 10 µM: 89.4% for the first, 94.2% for the second.

Going from Cc1cccc(N2CCOC3(CCCC3)C2)n1 [CBK304446] to O=C(C1CCCN1)N1CC2(CCCC2)c2c(F)cccc21 (stereo not shown) [CBK304489], the viability at 28.5 h, 10 µM rises from 82.1% to 90.1%.

First: Cc1noc(C)c1CN1CCC(c2ccccc2)C1 (stereo not shown) [CBK304451]
Second: Cc1cc(NCC2CCCO2)n2ncc(-c3ccccc3)c2n1 (stereo not shown) [CBK304530]
The viability at 28.5 h, 10 µM of the first is higher: 109% for the first, 83.8% for the second.

First: CC1CN(CCCCNCc2cn(C)nc2-c2cccnc2)CC(C)O1 (stereo not shown) [CBK304453]
Second: CN(C)C(CNCc1cn(C)nc1-c1cccnc1)c1ccccc1 (stereo not shown) [CBK304511]
The viability at 28.5 h, 10 µM of the first is higher: 92.6% for the first, 84.8% for the second.

Compared with CC(c1ccc(F)c(F)c1)N(C)C(=O)CN1CCCc2occc2C1 (stereo not shown) [CBK304456], Cc1nc(-c2cc3c(s2)CCN(CC(O)COCc2ccco2)C3)cs1 (stereo not shown) [CBK304460] is higher in viability at 28.5 h, 10 µM: 82.9% for the first, 89.4% for the second.

First: Cc1nc(C2CN(c3ccnc4c(F)cccc34)CCO2)no1 (stereo not shown) [CBK304464]
Second: Cc1cc(NC(=O)NC2CCOc3ccccc32)no1 (stereo not shown) [CBK304581]
The viability at 28.5 h, 10 µM of the first is lower: 80.7% for the first, 93.8% for the second.

First: COC(=O)CCN(Cc1nnc(C2CC2)o1)C(C)C [CBK304470]
Second: CCCn1c(C)nnc1CN(CC1CCCO1)C1CCC(C)CC1 (stereo not shown) [CBK304485]
The viability at 28.5 h, 10 µM of the first is lower: 84.6% for the first, 92% for the second.

First: Cc1csc2c(N3CCCC3CC(O)c3cnn(C)c3)ncnc12 (stereo not shown) [CBK304477]
Second: Cc1sc2ncnc(N3CCCC3Cn3cccn3)c2c1C (stereo not shown) [CBK304570]
The viability at 28.5 h, 10 µM of the first is higher: 91.9% for the first, 90.9% for the second.

Compared with COC(C)CN(C)C(=O)c1nnn(-c2ccc3ncccc3c2)c1C (stereo not shown) [CBK304484], CC(=O)Nc1ccc(OCC(O)Cn2cnc3ncccc3c2=O)cc1 (stereo not shown) [CBK304541] is higher in viability at 28.5 h, 10 µM: 85.8% for the first, 86.4% for the second.

Going from COc1cccc(C2(C(=O)N3CCc4nc[nH]c(=O)c4C3)CC2)c1 [CBK304488] to Cc1ccccc1C(=O)N1CCN(Cc2cc(=O)n3ccsc3n2)CC1 [CBK304595], the viability at 28.5 h, 10 µM rises from 83.3% to 90.9%.

First: CN1CCCC1CNCc1cn(-c2ccccc2)nc1-c1cccnc1 (stereo not shown) [CBK304490]
Second: CCOCC1CCN(C(=O)c2ncsc2Nc2cccnc2)C1 (stereo not shown) [CBK304514]
The viability at 28.5 h, 10 µM of the first is higher: 118% for the first, 110% for the second.

Compared with Cc1ccc(CCC(=O)N(CC(=O)O)C2CCOCC2)c(C)c1 [CBK304509], CN(C)C(=O)c1cccc(NC(=O)C2CCCCC2)c1 [CBK304515] is lower in viability at 28.5 h, 10 µM: 91.6% for the first, 89.7% for the second.

Compared with CCOC(=O)C1CSCCN1C(=O)c1ccc(-n2nc(C)cc2C)cc1 (stereo not shown) [CBK304517], Cc1ccc(C(=O)Nc2ncn(CC(=O)N3CCCCCC3)n2)cc1 [CBK304569] is higher in viability at 28.5 h, 10 µM: 86.4% for the first, 106% for the second.

Going from CN(CC1CCCCC1)C(=O)c1cc2ccsc2[nH]1 [CBK304518] to CN(C(=O)CN1CCCC1Cn1cccn1)C1(C#N)CCCCC1 (stereo not shown) [CBK304571], the viability at 28.5 h, 10 µM falls from 91.4% to 88.6%.

Going from O=C(Cc1noc2ccccc12)Nc1ccc(N2CCCS2(=O)=O)cc1 [CBK304521] to Cc1ccccc1CN(C)C(C)C(=O)Nc1ccc(S(N)(=O)=O)cc1 (stereo not shown) [CBK304589], the viability at 28.5 h, 10 µM falls from 107% to 91.7%.

First: CCOC(=O)N1CCN(C(=O)c2c(C)nn(C)c2Cl)CC1 [CBK304522]
Second: Cc1nn(C)c(C)c1CC(=O)Nc1cccc(CN2CCCCC2)c1 [CBK304547]
The viability at 28.5 h, 10 µM of the first is higher: 92.6% for the first, 87.4% for the second.

Going from CC(=O)Nc1ccc(CNC(=O)c2cc(C)n(CC(F)(F)F)c2C)cc1 [CBK304523] to CC(=O)Nc1ccc(CNC(=O)c2cccnc2O)cc1 [CBK304559], the viability at 28.5 h, 10 µM rises from 79.2% to 107%.

Compared with O=C(Cn1nnc2ccccc2c1=O)NCC(F)(F)F [CBK304533], CC(=O)Nc1cccc(CNC(=O)c2cccnc2OCC(F)(F)F)c1 [CBK304557] is lower in viability at 28.5 h, 10 µM: 94.1% for the first, 87.2% for the second.

Compared with CCN1CCc2nc(NC(=O)Cc3cn4ccsc4n3)sc2C1 [CBK304534], Cc1nn(CCC#N)c(C)c1CCC(=O)NCc1cn2ccccc2n1 [CBK304540] is lower in viability at 28.5 h, 10 µM: 90% for the first, 88.1% for the second.

Compared with COC(=O)c1ccc2c(=O)n(CC3CCCO3)c(SC)nc2c1 (stereo not shown) [CBK304535], CCOC(=O)c1c(NC(=O)CNCc2cccnc2)sc2c1CCCC2 [CBK304577] is lower in viability at 28.5 h, 10 µM: 108% for the first, 94% for the second.

Going from N#Cc1ccc(NC(=O)NCC2(N3CCOCC3)CCSC2)cc1 (stereo not shown) [CBK304546] to CN(Cc1ccc(Br)cc1)C(=O)CNS(=O)(=O)c1cnn(C)c1 [CBK304553], the viability at 28.5 h, 10 µM falls from 89.5% to 82.5%.

Compared with CS(=O)(=O)NC1CCN(c2nc(C(F)(F)F)nc3ccsc23)CC1 [CBK304592], CCS(=O)(=O)NC1CCN(c2nc(C(F)(F)F)nc3ccsc23)CC1 [CBK304593] is lower in viability at 28.5 h, 10 µM: 109% for the first, 108% for the second.

CS(=O)(=O)N1CCN(c2nc(C(F)(F)F)nc3ccsc23)CC1 [CBK304594] gave a viability at 28.5 h, 10 µM of 91.1%.
